target: T1, human DP2 receptor (Homo sapiens, UniProt Q9Y5Y4); test: DP2/CRTH2 binding assay (radioligand binding using [3H]PGD2); conditions: [3H]PGD2, membranes of HEK293 cells stably expressing recombinant human DP2; read-out: hDP2 binding
T1 construct: expressed in transfected cells
T1 sequence (Q9Y5Y4 1-395): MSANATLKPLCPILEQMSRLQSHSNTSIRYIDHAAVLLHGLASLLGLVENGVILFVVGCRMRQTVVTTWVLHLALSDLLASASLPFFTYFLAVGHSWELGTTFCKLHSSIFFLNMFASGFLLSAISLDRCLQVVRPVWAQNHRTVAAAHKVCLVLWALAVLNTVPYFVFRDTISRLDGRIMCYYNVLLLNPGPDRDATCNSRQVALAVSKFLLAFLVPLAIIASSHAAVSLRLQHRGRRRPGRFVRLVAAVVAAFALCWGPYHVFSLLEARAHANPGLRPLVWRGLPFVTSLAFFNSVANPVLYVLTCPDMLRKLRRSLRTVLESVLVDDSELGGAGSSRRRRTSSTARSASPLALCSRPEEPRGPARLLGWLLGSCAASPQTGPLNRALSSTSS
Protocol: The ability of a compound to bind to the human DP2 receptor is assessed via a radioligand binding assay using [^3H]PGD2. HEK293 cells stably expressing recombinant human DP2 are resuspended in 10 mM Hepes, 7.4 containing 1 mM DTT, lysed and centrifuged at 75,000×g to pellet the membranes. The membranes are resuspended in 10 mM Hepes, 7.4 containing 1 mM DTT and 10% glycerol to approximately 5 mg protein/ml. Membranes (2-10 μg protein/well) are incubated in 96-well plates with 1 nM [^3H]PGD2 and test compound in Assay Buffer (50 mM Hepes, 10 mM MnCl2, 1 mM EDTA, plus or minus 0.2% human serum albumin, pH 7.4) for 60 minutes at room temperature. The reactions are terminated by rapid filtration through Whatman GF/C glass fibre filter plates. The filter plates were pre-soaked in 0.33% polythylenimine for 30 minutes at room temperature then washed in Wash Buffer (50 mM Hepes, 0.5 M NaCl pH 7.4) prior to harvesting. After harvesting, the filter plates are washed 3 times with 1 ml cold Wash Buffer then dried. Scintillant is then added to the plates and the radioactivity retained on the filters is determined on a Packard TopCount (Perkin Elmer). Specific binding is determined as total radioactive binding minus non-specific binding in the presence of 10 μM PGD2. IC50s were determined using GraphPad prism analysis of drug titration curves.

Question: How did the IC50 turn out when `COc1ccc(-c2ccc(C(F)(F)F)cc2CN2CCOC2=O)cc1CC(=O)O` [Compound 1-2, [4-Methoxy-2′-(2-oxo-oxazolidin-3-ylmethyl)-4′-trifluoromethyl-biphenyl-3-yl]-acetic acid] was run?
Answer: < 300 nM

Question: With `COc1ccc(CC(=O)O)cc1-c1ccc(C(F)(F)F)cc1CN1C(=O)N(CC(=O)O)C(C)(c2ccccc2)C1=O` (stereo not shown) [Compound 2-2, [2′-(3-Carboxymethyl-4-methyl-2,5-dioxo-4-phenyl-imidazolidin-1-ylmethyl)-6-methoxy-4′-trifluoromethyl-biphenyl-3-yl]-acetic acid] as the compound, how does the IC50 read?
Answer: > 1000 nM

Question: How did the IC50 turn out when `C[C@H]1[C@@H](c2ccccc2)OC(=O)N1Cc1cc(C(F)(F)F)ccc1-c1cc(CC(=O)O)ccc1-c1cccnc1` [Compound 1-20, [2′-((4S,5R)-4-Methyl-2-oxo-5-phenyl-oxazolidin-3-ylmethyl)-6-pyridin-3-yl-4′-trifluoromethyl-biphenyl-3-yl]-acetic acid] was run?
Answer: < 300 nM

Question: `COc1ccc(CC(=O)O)cc1-c1ccc(C(F)(F)F)cc1CN1C(=O)O[C@H](c2cc(C(F)(F)F)cc(C(F)(F)F)c2)[C@@H]1C` [Compound 1-13, {2′-[(4S,5R)-5-(3,5-Bis-trifluoromethyl-phenyl)-4-methyl-2-oxo-oxazolidin-3-ylmethyl]-6-methoxy-4′-trifluoromethyl-biphenyl-3-yl}-acetic acid] was tested. Which IC50 did it give?
Answer: < 300 nM

Question: How did the IC50 turn out when `C[C@H]1[C@@H](c2ccccc2)OC(=O)N1Cc1cc(C(F)(F)F)ccc1-c1cc(CC(=O)O)ccc1OCC(=O)O` [Compound 1-16, [6-Carboxymethoxy-2′-((4S,5R)-4-methyl-2-oxo-5-phenyl-oxazolidin-3-ylmethyl)-4′-trifluoromethyl-biphenyl-3-yl]-acetic acid] was run?
Answer: 300 to 1000 nM

Question: How did the IC50 turn out when `CCOc1ccc(CC(=O)O)cc1-c1ccc(C(F)(F)F)cc1CN1C(=O)O[C@H](c2ccccc2)[C@@H]1C` [Compound 1-14, [6-Ethoxy-2′-((4S,5R)-4-methyl-2-oxo-5-phenyl-oxazolidin-3-ylmethyl)-4′-trifluoromethyl-biphenyl-3-yl]-acetic acid] was run?
Answer: < 300 nM

Question: For `C[C@H]1[C@@H](c2ccccc2)OC(=O)N1Cc1cc(C(F)(F)F)ccc1-c1cccc(CC(=O)O)c1` [Compound 1-6, [2′-((4S,5R)-4-Methyl-2-oxo-5-phenyl-oxazolidin-3-ylmethyl)-4′-trifluoromethyl-biphenyl-3-yl]-acetic acid], which IC50 is on record?
Answer: 300 to 1000 nM

Question: With `C[C@H]1[C@@H](c2ccccc2)OC(=O)N1Cc1cc(C(F)(F)F)ccc1-c1cc(CC(=O)O)ccc1-c1cnn(C)c1` [Compound 1-21, [2′-((4S,5R)-4-Methyl-2-oxo-5-phenyl-oxazolidin-3-ylmethyl)-6-(1-methyl-1H-pyrazol-4-yl)-4′-trifluoromethyl-biphenyl-3-yl]-acetic acid] as the compound, how does the IC50 read?
Answer: 300 to 1000 nM

Question: With `O=C(O)CCn1c2c(c3ccccc31)C[C@H](NS(=O)(=O)c1ccc(F)cc1)CC2` [Ramatroban, reference compound] as the compound, how does the IC50 read?
Answer: 300 to 1000 nM

Question: With `COc1ccc(CC(=O)O)cc1-c1ccc(C(F)(F)F)cc1CN1C(=O)NC(C)(c2ccccc2)C1=O` (stereo not shown) [Compound 2-1, [6-Methoxy-2′-(4-methyl-2,5-dioxo-4-phenyl-imidazolidin-1-ylmethyl)-4′-trifluoromethyl-biphenyl-3-yl]-acetic acid] as the compound, how does the IC50 read?
Answer: > 1000 nM

Question: With `C[C@H]1[C@@H](c2ccccc2)OC(=O)N1Cc1cc(C(F)(F)F)ccc1-c1cc(CC(=O)O)ccc1OCC1CC1` [Compound 1-15, [6-Cyclopropylmethoxy-2′-((4S,5R)-4-methyl-2-oxo-5-phenyl-oxazolidin-3-ylmethyl)-4′-trifluoromethyl-biphenyl-3-yl]-acetic acid] as the compound, how does the IC50 read?
Answer: < 300 nM

Question: For `COc1ccc(CC(=O)O)cc1-c1ccc(C(F)(F)F)cc1CN1CCOC1=O` [Compound 1-1, [6-Methoxy-2′-(2-oxo-oxazolidin-3-ylmethyl)-4′-trifluoromethyl-biphenyl-3-yl]-acetic acid], which IC50 is on record?
Answer: < 300 nM

Question: Which IC50 does the source give for `COc1ccc(-c2ccc(C(F)(F)F)cc2CN2C(=O)O[C@H](c3ccccc3)[C@@H]2C)cc1CC(=O)O` [Compound 1-8, [4-Methoxy-2′-((4S,5R)-4-methyl-2-oxo-5-phenyl-oxazolidin-3-ylmethyl)-4′-trifluoromethyl-biphenyl-3-yl]-acetic acid] here?
Answer: < 300 nM

Question: `C[C@H]1[C@@H](c2ccccc2)OC(=O)N1Cc1cc(C(F)(F)F)ccc1-c1cc(CC(=O)O)ccc1OCc1ccc(Cl)cc1` [Compound 1-18, [6-(4-Chloro-benzyloxy)-2′-((4S,5R)-4-methyl-2-oxo-5-phenyl-oxazolidin-3-ylmethyl)-4′-trifluoromethyl-biphenyl-3-yl]-acetic acid] was tested. Which IC50 did it give?
Answer: < 300 nM

Question: How did the IC50 turn out when `C[C@H]1[C@@H](c2ccccc2)OC(=O)N1Cc1cc(C(F)(F)F)ccc1-c1ccc(F)c(CC(=O)O)c1` [Compound 1-7, [4-Fluoro-2′-((4S,5R)-4-methyl-2-oxo-5-phenyl-oxazolidin-3-ylmethyl)-4′-trifluoromethyl-biphenyl-3-yl]-acetic acid] was run?
Answer: 300 to 1000 nM

Question: With `COc1ccc(CC(=O)O)cc1-c1ccc(C(F)(F)F)cc1CN1CCN=C1C` [Compound 3-1, [6-Methoxy-2′-(2-methyl-4,5-dihydro-imidazol-1-ylmethyl)-4′-trifluoromethyl-biphenyl-3-yl]-acetic acid] as the compound, how does the IC50 read?
Answer: > 1000 nM

Question: With `COc1ccc(CC(=O)O)cc1-c1ccccc1CN1C(=O)O[C@H](c2ccccc2)[C@@H]1C` [Compound 1-3, [6-Methoxy-2′-((4S,5R)-4-methyl-2-oxo-5-phenyl-oxazolidin-3-ylmethyl)-biphenyl-3-yl]-acetic acid] as the compound, how does the IC50 read?
Answer: 300 to 1000 nM

Question: For `C[C@H]1[C@@H](c2ccccc2)OC(=O)N1Cc1cc(C(F)(F)F)ccc1-c1cc(CC(=O)O)ccc1F` [Compound 1-9, [6-Fluoro-2′-((4S,5R)-4-methyl-2-oxo-5-phenyl-oxazolidin-3-ylmethyl)-4′-trifluoromethyl-biphenyl-3-yl]-acetic acid], which IC50 is on record?
Answer: < 300 nM

Question: Which IC50 does the source give for `COc1ccc(-c2cc(CC(=O)O)ccc2OC)c(CN2C(=O)O[C@H](c3ccccc3)[C@@H]2C)c1` [Compound 1-5, [6,4′-Dimethoxy-2′-((4S,5R)-4-methyl-2-oxo-5-phenyl-oxazolidin-3-ylmethyl)-biphenyl-3-yl]-acetic acid] here?
Answer: > 1000 nM

Question: For `C[C@H]1[C@@H](c2ccccc2)OC(=O)N1Cc1cc(C(F)(F)F)ccc1-c1cc(CC(=O)O)ccc1-c1ccccc1` [Compound 1-19, [2″-((4S,5R)-4-Methyl-2-oxo-5-phenyl-oxazolidin-3-ylmethyl)-4″-trifluoromethyl-[1,1′;2′,1″]terphenyl-4′-yl]-acetic acid], which IC50 is on record?
Answer: < 300 nM

Question: How did the IC50 turn out when `COc1ccc(CC(=O)O)cc1-c1ccc(C(F)(F)F)cc1CN1C(=O)O[C@H](c2ccccc2)[C@@H]1C` [Compound 1-10, [6-Methoxy-2′-((4S,5R)-4-methyl-2-oxo-5-phenyl-oxazolidin-3-ylmethyl)-4′-trifluoromethyl-biphenyl-3-yl]-acetic acid] was run?
Answer: < 300 nM

Question: `COc1ccc(C(C)C(=O)O)cc1-c1ccc(C(F)(F)F)cc1CN1C(=O)O[C@H](c2ccccc2)[C@@H]1C` (stereo partly drawn) [Compound 1-12, 2-[6-Methoxy-2′-((4S,5R)-4-methyl-2-oxo-5-phenyl-oxazolidin-3-ylmethyl)-4′-trifluoromethyl-biphenyl-3-yl]-propionic acid] was tested. Which IC50 did it give?
Answer: < 300 nM

Question: How did the IC50 turn out when `COc1ccc(CC(=O)O)cc1-c1ccc(C(F)(F)F)cc1CN1C(=O)O[C@@H](c2ccccc2)[C@H]1C` [Compound 1-11, [6-Methoxy-2′-((4R,5S)-4-methyl-2-oxo-5-phenyl-oxazolidin-3-ylmethyl)-4′-trifluoromethyl-biphenyl-3-yl]-acetic acid] was run?
Answer: > 1000 nM

Question: `C[C@H]1[C@@H](c2ccccc2)OC(=O)N1Cc1cc(C(F)(F)F)ccc1-c1cc(CC(=O)O)ccc1OCc1ccccc1` [Compound 1-17, [6-Benzyloxy-2′-((4S,5R)-4-methyl-2-oxo-5-phenyl-oxazolidin-3-ylmethyl)-4′-trifluoromethyl-biphenyl-3-yl]-acetic acid] was tested. Which IC50 did it give?
Answer: < 300 nM

Question: With `COc1ccc(CC(=O)O)cc1-c1ccc(F)cc1CN1C(=O)O[C@H](c2ccccc2)[C@@H]1C` [Compound 1-4, [4′-Fluoro-6-methoxy-2′-((4S,5R)-4-methyl-2-oxo-5-phenyl-oxazolidin-3-ylmethyl)-biphenyl-3-yl]-acetic acid] as the compound, how does the IC50 read?
Answer: < 300 nM

From patent publication US8497381B2, “Antagonists of prostaglandin D2 receptors” (Panmira Pharmaceuticals, LLC, priority 2008, dated 2013)
